Experimental data reported in patent US20170239323A1, “ORITAVANCIN FORMULATIONS” (The Medicines Company, priority 2016, published 2017).

Assay: pH adjustment of oritavancin/HPCD solution with 1N NaOH: visual observations
Format: physicochemical
Conditions: for Observations: 20% w/v HPCD reconstitution (3 mL aliquot)
Method: Reconstituting Orbactiv 400 mg (Oritavancin) in 20% w/v HPCD, diluting in saline then adjusting pH. The 50 mg/mL solution of oritavancin in 20% w/v HPCD (described in Table 3) was further diluted in 0.9% saline to 6 mg/mL in a small glass vial. The pH was adjusted using 1N NaOH. NaOH was added to the oritavancin solution in […] and vortexed. Visual observations and pH were recorded (Table 5).
Reconstituting Orbactiv 400 mg (Oritavancin) in 50% w/v HPCD aqueous solution, adjusting pH then diluting in saline. 6.269 g of HPCD was dissolved in 12.538 mL of water to make a 50% w/v solution (pH=7.23). Seven (7) mL of the 50% w/v solution was added to a 400 mg vial of Orbactiv for a target oritavancin concentration of 57.14 mg/mL. […] A 2 mL aliquot of 57.14 mg/mL was removed from the vial and placed in a small glass vial. The pH was adjusted to 6.5 using 1N NaOH. NaOH was added to the oritavancin solution in 5 μL increments and vortexed. Visual observations and pH were recorded (Table 6).
(§1) Reconstituting Orbactiv 400 mg (Oritavancin) in 50% w/v aqueous HPCD, adjusting pH then diluting in saline. 6.112 g of HPCD was dissolved in 12.224 mL of water to make a 50% w/v solution (pH=6.74). Seven (7) mL of the 50% w/v HPCD solution was added to a 400 mg vial of Orbactiv for a target oritavancin concentration of 57.14 mg/mL. […] A 3 mL aliquot of 57.14 mg/mL was removed from the vial and placed in a small glass vial. The pH was adjusted to 7 using 1N NaOH. NaOH was added to the oritavancin solution in 5 μL increments and vortexed. Visual observations and pH were recorded (Table 8).
as §1, with “20%” for “50%”, “3.555” for “6.112”, “17.775” for “12.224”, “(pH=6.88).” for “(pH=6.74).”, “recorded.” for “recorded”, “10).” for “8).”

CN[C@H](CC(C)C)C(=O)N[C@H]1C(=O)N[C@@H](CC(N)=O)C(=O)N[C@H]2C(=O)N[C@H]3C(=O)N[C@H](C(=O)N[C@H](C(=O)O)c4cc(O)cc(O)c4-c4cc3ccc4O)[C@H](O[C@H]3C[C@](C)(N)[C@@H](O)[C@H](C)O3)c3ccc(c(Cl)c3)Oc3cc2cc(c3O[C@@H]2O[C@H](CO)[C@@H](O)[C@H](O)[C@H]2O[C@H]2C[C@](C)(NCc3ccc(-c4ccc(Cl)cc4)cc3)[C@@H](O)[C@H](C)O2)Oc2ccc(cc2Cl)[C@H]1O [Oritavancin]
Clear, colorless solution.: Observations (1N NaOH 0 μL, pH 3.95, oritavancin 57.14 mg/mL) | Observations (1N NaOH 35 μL, pH 5.45, oritavancin 56.44 mg/mL) | Observations (1N NaOH 65 μL, pH 5.95, oritavancin 55.82 mg/mL) | Observations (1N NaOH 120 μL, pH 6.49, oritavancin 54.64 mg/mL) | Observations (1N NaOH 160 μL, pH 6.76, oritavancin 53.75 mg/mL) | Observations (1N NaOH 195 μL, pH 7.03, oritavancin 52.94 mg/mL)
7: pH to which solution could be adjusted without any sign of precipitation (57 mg/mL in 20% w/v aqueous HPCD, over 24 hours) | pH to which solution could be adjusted without any sign of precipitation (57 mg/mL in 50% w/v aqueous HPCD, over 24 hours)
Clear, colorless solution: Observations (1N NaOH 5 μL, pH 4.11, oritavancin 57.04 mg/mL) | Observations (1N NaOH 10 μL, pH 4.31, oritavancin 56.94 mg/mL) | Observations (1N NaOH 15 μL, pH 4.68, oritavancin 56.84 mg/mL) | Observations (1N NaOH 20 μL, pH 4.89, oritavancin 56.74 mg/mL) | Observations (1N NaOH 25 μL, pH 5.19, oritavancin 56.64 mg/mL) | Observations (1N NaOH 30 μL, pH 5.29, oritavancin 56.54 mg/mL) | Observations (1N NaOH 40 μL, pH 5.57, oritavancin 56.34 mg/mL) | Observations (1N NaOH 45 μL, pH 5.63, oritavancin 56.23 mg/mL) | Observations (1N NaOH 50 μL, pH 5.69, oritavancin 56.13 mg/mL) | Observations (1N NaOH 55 μL, pH 5.82, oritavancin 56.03 mg/mL) | Observations (1N NaOH 60 μL, pH 5.87, oritavancin 55.92 mg/mL) | Observations (1N NaOH 70 μL, pH 6.01, oritavancin 55.71 mg/mL) | Observations (1N NaOH 75 μL, pH 6.06, oritavancin 56.60 mg/mL) | Observations (1N NaOH 80 μL, pH 6.10, oritavancin 55.49 mg/mL) | Observations (1N NaOH 85 μL, pH 6.18, oritavancin 55.38 mg/mL) | Observations (1N NaOH 90 μL, pH 6.20, oritavancin 55.28 mg/mL) | Observations (1N NaOH 95 μL, pH 6.24, oritavancin 55.17 mg/mL) | Observations (1N NaOH 100 μL, pH 6.28, oritavancin 55.06 mg/mL) | Observations (1N NaOH 105 μL, pH 6.34, oritavancin 54.95 mg/mL) | Observations (1N NaOH 110 μL, pH 6.38, oritavancin 54.85 mg/mL) | Observations (1N NaOH 115 μL, pH 6.44, oritavancin 54.74 mg/mL) | Observations (1N NaOH 125 μL, pH 6.52, oritavancin 54.52 mg/mL) | Observations (1N NaOH 130 μL, pH 6.54, oritavancin 54.41 mg/mL) | Observations (1N NaOH 135 μL, pH 6.57, oritavancin 54.30 mg/mL) | Observations (1N NaOH 140 μL, pH 6.62, oritavancin 54.19 mg/mL) | Observations (1N NaOH 145 μL, pH 6.65, oritavancin 54.09 mg/mL) | Observations (1N NaOH 150 μL, pH 6.69, oritavancin 53.97 mg/mL) | Observations (1N NaOH 155 μL, pH 6.72, oritavancin 53.86 mg/mL) | Observations (1N NaOH 165 μL, pH 6.80, oritavancin 53.63 mg/mL) | Observations (1N NaOH 170 μL, pH 6.82, oritavancin 53.51 mg/mL) | Observations (1N NaOH 175 μL, pH 6.86, oritavancin 53.40 mg/mL) | Observations (1N NaOH 180 μL, pH 6.90, oritavancin 53.28 mg/mL) | Observations (1N NaOH 185 μL, pH 6.93, oritavancin 53.17 mg/mL) | Observations (1N NaOH 190 μL, pH 6.98, oritavancin 53.05 mg/mL)
6.3: pH to which solution could be adjusted without any sign of precipitation (57 mg/mL in 50% w/v aqueous HPCD, over an hour)
